{"source": "patent US20190159457A1", "about": "“Combinatorial Compositions of Benzoxaboroles and Biologic Agents” (Boragen, Inc., priority 2017, published 2019)", "format_in_all_cases": "cell-based", "key": {"[1]": {"system": "Fusarium oxysporum f sp. cubense tropical race 4 (FOC.TR4)", "assay": "Inhibition rate of fungal hyphae growth on PDA petri dish", "details": "Bacillus subtilis −", "protocol": "(§1) The synergistic or additive effect of Bacillus subtilis in combination with an oxaborole compound on fungicidal compounds was evaluated by determining the inhibition rate of fungal growth on a petri dish. The oxaborole compound used for the example was BAG8. The inhibition rate was calculated as: inhibition %=(X−Y)/X*100, where X is the diameter of fungal hyphae grown on control without any fungicidal compound or beneficial bacteria.\n(§2) The ability of Bacillus subtilis to inhibit growth of the four example fungal pathogens was evaluated by determining the inhibition rate of fungal hyphae on the PDA petri dishes (diameter of 100 mm) with the bacteria (initial bacterial cells: 2000CFU). 0.2 mL of Bacillus subtilis (lx 10^3, 1×10^4, 1×10^5, 1×10^6FU/mL) was spread on the PDA plates. The plates were cultured at 37° C. overnight, followed by inoculating the fresh fungal agar plugs ( 3/16 inch, diameter). The PDA plates with fungal agar plugs were cultured at 25° C. for 4-7 days, and then diameters of hyphae were measured. The inhibition rate was calculated as: inhibition %=(X−Y)/X*100, where X is the diameter of fungal hyphae grown on control without the bacteria. Inhibition rate of 100% means that the fungus cannot grow on PDA medium.\n(§3) Testing was performed to compare inhibition performance of BAG8 by itself versus BAG8 in combination with Bacillis subtilis. Initially, the PDA plates (diameter of 100 mm) were prepared with various concentrations (0, 0.2, 0.5, 1, 2, 5 and 10 ug/mL) of the BAG8 compound;\n(§4) Then, 0.2 mL of Bacillus subtilis (1×10^4CFU/mL) were spread onto some of the PDA plates with fungicide compounds. The […] Botrytis cinerea, Fusarium oxysporum f sp. Cubense, Mycosphaerella graminicola, and Sclerotinia sclerotiorum.\n(§5) The PDA plates with the combined BAG8 and Bacillus subtilis were inoculated with the fresh fungal agar plugs ( 3/16 inch, diameters) and the plates were cultured at 25° C. for 4-7 days, and then diameters of hyphae were measured. The inhibition rate was calculated as: inhibition %=(X−Y)/X*100, where X is the diameter of fungal hyphae grown on control without the bacteria."}, "[2]": {"system": "Sclerotinia sclerotiorum 1980 (Ss1980)", "assay": "Inhibition rate of fungal hyphae growth on PDA petri dish", "details": "Bacillus subtilis −", "protocol": "as §1, §2, §3, §4, §5"}, "[3]": {"system": "Mycosphaerella graminicola (SLB)", "assay": "Inhibition rate of fungal hyphae growth on PDA petri dish", "details": "Zymoseptoria tritici, Bacillus subtilis −", "protocol": "as §1, §2, §3, §4, §5"}, "[4]": {"system": "Botrytis cinerea B05.10 (B05.10)", "assay": "Inhibition rate of fungal hyphae growth on PDA petri dish", "details": "Bacillus subtilis −", "protocol": "as §1, §2, §3, §4, §5"}, "[5]": {"system": "Bacillus subtilis", "assay": "Toxicity of oxaborole compound on Bacillus subtilis (MIC)", "details": "48 hours, about 37 °C, 1×10^5 CFU/mL", "protocol": "The final concentration of Bacillus subtilis was 1×10^5 CFU/mL.\nPlates sealed with clear polyester film (VWR) were incubated at a temperature of about 37° C. The progress of Bacillus subtilis growth was monitored at 48 hours."}}}
{"smiles": "OB1OCc2cc(Cl)ccc21", "note": "[BAG8, 5-chlorobenzo[c][1,2]oxaborol-1(3H)-ol]", "values": [{"measurement": "inhibition at 0.2 µg/mL", "setting": "[1]; BAG8 0.2 ug/mL", "result": 9, "unit": "%"}, {"measurement": "inhibition at 0.5 µg/mL", "setting": "[1]; BAG8 0.5 ug/mL", "result": 47, "unit": "%"}, {"measurement": "inhibition at 1 µg/mL", "setting": "[1]; BAG8 1 ug/mL", "result": 95, "unit": "%"}, {"measurement": "inhibition at 2 µg/mL", "setting": "[1]; BAG8 2 ug/mL", "result": 94, "unit": "%"}, {"measurement": "inhibition at 0.2 µg/mL", "setting": "[2]; BAG8 0.2 ug/mL", "result": 12, "unit": "%"}, {"measurement": "inhibition at 0.5 µg/mL", "setting": "[2]; BAG8 0.5 ug/mL", "result": 48, "unit": "%"}, {"measurement": "inhibition at 1 µg/mL", "setting": "[2]; BAG8 1 ug/mL", "result": 94, "unit": "%"}, {"measurement": "inhibition at 2 µg/mL", "setting": "[2]; BAG8 2 ug/mL", "result": 98, "unit": "%"}, {"measurement": "inhibition at 0.2 µg/mL", "setting": "[3]; BAG8 0.2 ug/mL", "result": 6, "unit": "%"}, {"measurement": "inhibition at 0.5 µg/mL", "setting": "[3]; BAG8 0.5 ug/mL", "result": 38, "unit": "%"}, {"measurement": "inhibition at 1 µg/mL", "setting": "[3]; BAG8 1 ug/mL", "result": 93, "unit": "%"}, {"measurement": "inhibition at 2 µg/mL", "setting": "[3]; BAG8 2 ug/mL", "result": 96, "unit": "%"}, {"measurement": "inhibition at 0.2 µg/mL", "setting": "[4]; BAG8 0.2 ug/mL", "result": 10, "unit": "%"}, {"measurement": "inhibition at 0.5 µg/mL", "setting": "[4]; BAG8 0.5 ug/mL", "result": 23, "unit": "%"}, {"measurement": "inhibition at 1 µg/mL", "setting": "[4]; BAG8 1 ug/mL", "result": 69, "unit": "%"}, {"measurement": "inhibition at 2 µg/mL", "setting": "[4]; BAG8 2 ug/mL", "result": 98, "unit": "%"}, {"measurement": "MIC", "setting": "[5]", "result": "> 25", "unit": "µg/mL"}]}
